“Also recorded” adds a separate entry of the source.
How the values were obtained:
[1] = Example 6.1: body weight of LXFL 529 tumor-bearing mice; assay type: in vivo, NMRI nu/nu mice; settings: FIG. 14
Protocol: The application volume was 20 ml/kg mouse body weight for saline and Voluven® 10% and 10 ml/kg of the 1 mg/ml solution for Everolimus (administered final dose 10 mg/kg). The route of administration was by i.v. injection into the tail vein for saline and Voluven® 10%. 10 mg/kg of body weight Everolimus was administered p.o.

[2] = tested on: human prostate carcinoma cell line PC-3; assay: Example 4: PC-3 xenograft tumor growth in nude mice; assay type: in vivo; settings: 3 week observation period; FIG. 5
Protocol: In another study which was performed in analogy to the study described above, the effect of “Voluven 10%” was tested on a different cancer cell line, i.e. on prostate cancer cell line PC3.
The rapidly growing human prostate carcinoma cell line PC-3 was used as xenograft tumor model in nude mice to test the efficacy of Voluven® 10% on reduction of tumour growth rates. Paclitaxel was employed as positive control and saline as negative control.
• Strain: NMRI nude (homozygous)-Rj:NMRI-nu • Sex: Female • Supplier: Elevage Janvier, Route des Chènes Secs, 53940 Le Genest St. Isle, France • Health status: SPF • Age at delivery: 5-6 weeks • Acclimatization: At least 6 days […]
Tumor measurement: The tumor growth was measured three times a week (e.g. Monday, Wednesday, and Friday) beginning with study day 3 (tumor measurable at size approx. 3 mm in diameter). Tumor volumes were calculated according to V=(length×(width)^2)/2. […]
To prepare the paclitaxel solution at a concentration of 2.5 mg/ml the paclitaxel stock solution (6 mg/ml) was diluted with 0.9% isotonic saline. […] Saline and Voluven® 10% were provided as ready-to-use formulations. […]
Statistical analyses of data were performed for each group separately. Group medians were calculated for body weights and tumor measurements for each investigation time. […] For the evaluation of tumor volume/area and T/C values were calculated using Microsoft Excel 7.0.

[3] = Example 6.2: body weight of LXFE 397 tumor-bearing mice; assay type: in vivo, NMRI nu/nu mice; settings: FIG. 16
Protocol: The application volume was 20 ml/kg mouse body weight for saline and Voluven® 10% (i.v.) and 100 mg/kg for Capecitabine (p.o.).

With `CO[C@H]1C[C@@H]2CC[C@@H](C)[C@@](O)(O2)C(=O)C(=O)N2CCCC[C@H]2C(=O)O[C@H]([C@H](C)C[C@@H]2CC[C@@H](OCCO)[C@H](OC)C2)CC(=O)[C@H](C)/C=C(\C)[C@@H](O)[C@@H](OC)C(=O)[C@H](C)C[C@H](C)/C=C/C=C/C=C/1C` [Everolimus] the “body weight (in words)” value [1] was “slight reduction”.
In the case of `CC(=O)O[C@H]1C(=O)[C@@]2(C)[C@H]([C@H](OC(=O)c3ccccc3)[C@]3(O)C[C@H](OC(=O)[C@H](O)[C@@H](NC(=O)c4ccccc4)c4ccccc4)C(C)=C1C3(C)C)[C@]1(OC(C)=O)CO[C@@H]1C[C@@H]2O` [paclitaxel, Paclitaxel], the “effect on tumor volume (in words)” value [2] is reported as “stable tumour size or reduced the tumor volume; also recorded: decrease of the initial tumor volume”.
In the case of `CCCCCOC(=O)Nc1nc(=O)n([C@@H]2O[C@H](C)[C@@H](O)[C@H]2O)cc1F` [Capecitabine], the “body weight (in words)” value [3] is reported as “not reduced”.

Source: patent US20160082036A1, “HYDROXYALKYL STARCH FOR THE TREATMENT OF CANCERS BY REDUCTION OF TUMOR GROWTH RATES” (Fresenius Kabi Deutschland GmbH, priority 2012, published 2016)
